# Test results from patent US9056858B2, “Indazole and pyrazolopyridine compounds as CCR1 receptor antagonists” (Boehringer Ingelheim International GmbH, priority 2009, dated 2015).
# Biological target: T1, CCR1 (Homo sapiens, UniProt P32246)
# T1 construct: host or cells: Non-adherent cells
# T1 sequence (P32246 1-355): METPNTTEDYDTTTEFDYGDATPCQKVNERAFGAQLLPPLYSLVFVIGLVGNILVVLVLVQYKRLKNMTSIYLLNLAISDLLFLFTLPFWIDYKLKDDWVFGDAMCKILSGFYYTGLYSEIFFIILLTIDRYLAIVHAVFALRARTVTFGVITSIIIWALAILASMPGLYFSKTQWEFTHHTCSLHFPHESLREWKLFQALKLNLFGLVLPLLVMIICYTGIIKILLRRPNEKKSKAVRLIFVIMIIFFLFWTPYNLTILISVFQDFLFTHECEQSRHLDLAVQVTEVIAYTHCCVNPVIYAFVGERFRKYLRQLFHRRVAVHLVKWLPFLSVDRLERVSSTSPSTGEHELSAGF
# Test: functional cellular assay measuring calcium flux in CCR1 transfected cells (block of CCR1/MIP-1α interaction)
# Assay type: cell-based
# Conditions: cells stably expressing recombinant CCR1 and G-alpha-16, MIP-1alpha added at EC80
# Experimental: Compounds are assessed for the ability to block the interaction of CCR1 and MIP-1α in a functional cellular assay measuring calcium flux in CCR1 transfected cells.
# Non-adherent cells purchased from Chemicon Corporation (HTS005C), stably expressing recombinant CCR1 and G-alpha-16 are grown in RPMI 1640 medium (Mediatech 10-080-CM) supplemented with 10% FBS, 0.4 mg/mL Geneticin and penicillin/streptomycin. On the day of the assay, the cells are loaded with Calcium 4 dye (Molecular Devices R7448) with Probenecid (Invitrogen P346400) at 8E5 cells/mL for 1 hour at room temperature. After 1 hour, they are seeded in a 384-well tissue culture-treated plate at a density of 20,000 cells/well. Appropriately diluted test compound is added to the well to achieve a top concentration of 3,000 nM (diluted 4-fold with 10 doses total). The final concentration of DMSO is 1%. The buffer is HBSS (Invitrogen 14025) with 20 mM HEPES at pH 7.4. The cells incubate 30 minutes at 37 C and then 30 minutes at room temperature. The plates are transferred to the […] FDSS6000 where MIP-1alpha in 1% BSA is added at the EC80 final concentration. All plates must be read within 4 hours of the start of dye-loading. Wells +/− MIP-1alpha containing diluted DMSO instead of compound serve as the controls. Data are analyzed using Activity Base software.
row,IC50,Structure (SMILES)
1,74 nM,"NC(=O)CNC(=O)c1cccc(C2(NC(=O)c3cncc4c3cnn4-c3ccc(F)cc3)CC2)c1 [1-(4-Fluoro-phenyl)-1H-pyrazolo[3,4-c]pyridine-4-carboxylic acid {1-[3-(carbamoylmethyl-carbamoyl)-phenyl]-cyclopropyl}-amide]"
2,35 nM,"N#CCNC(=O)c1cccc(C2(NC(=O)c3cncc4c3cnn4-c3ccc(F)cc3)CC2)c1 [1-(4-Fluoro-phenyl)-1H-pyrazolo[3,4-c]pyridine-4-carboxylic acid {1-[3-(cyanomethyl-carbamoyl)-phenyl]-cyclopropyl}-amide]"
3,78 nM,"CNC(=O)CNC(=O)c1cccc(C2(NC(=O)c3cncc4c3cnn4-c3ccc(F)cc3)CC2)c1 [1-(4-Fluoro-phenyl)-1H-pyrazolo[3,4-c]pyridine-4-carboxylic acid {1-[3-(methylcarbamoylmethyl-carbamoyl)-phenyl]-cyclopropyl}-amide]"
4,98 nM,"COC(=O)C1(NC(=O)c2cccc(C3(NC(=O)c4cncc5c4cnn5-c4ccc(F)cc4)CC3)c2)CC1 [1-[3-(1-{[1-(4-Fluoro-phenyl)-1H-pyrazolo[3,4-c]pyridine-4-carbonyl]-amino}-cyclopropyl)-benzoylamino]-cyclopropanecarboxylic acid methyl ester]"
5,11 nM,"COC(=O)c1cccc(C2(NC(=O)c3cncc4c3cnn4-c3ccc(F)cc3)CC2)c1 [3-(1-{[1-(4-Fluoro-phenyl)-1H-pyrazolo[3,4-c]pyridine-4-carbonyl]-amino}-cyclopropyl)-benzoic acid methyl ester]"
6,27 nM,"O=C(O)c1cccc(C2(NC(=O)c3cncc4c3cnn4-c3ccc(F)cc3)CC2)c1 [3-(1-{[1-(4-Fluoro-phenyl)-1H-pyrazolo[3,4-c]pyridine-4-carbonyl]-amino}-cyclopropyl)-benzoic acid]"
7,17 nM,"COC(=O)CCS(=O)(=O)c1cccc(C2(NC(=O)c3cncc4c3cnn4-c3ccc(F)cc3)CC2)c1 [3-[3-(1-{[1-(4-Fluoro-phenyl)-1H-pyrazolo[3,4-c]pyridine-4-carbonyl]-amino}-cyclopropyl)-benzenesulfonyl]-propionic acid methyl ester]"
8,69 nM,"O=C(O)c1ccc(C2(NC(=O)c3cncc4c3cnn4-c3ccc(F)cc3)CC2)cc1 [4-(1-{[1-(4-Fluoro-phenyl)-1H-pyrazolo[3,4-c]pyridine-4-carbonyl]-amino}-cyclopropyl)-benzoic acid]"
9,80 nM,"COC(=O)[C@H](C)NC(=O)c1cccc(C2(NC(=O)c3cncc4c3cnn4-c3ccc(F)cc3)CC2)c1 [(S)-2-[3-(1-{[1-(4-Fluoro-phenyl)-1H-pyrazolo[3,4-c]pyridine-4-carbonyl]-amino}-cyclopropyl)-benzoylamino]-propionic acid methyl ester]"
10,5 nM,"COC(=O)CNC(=O)c1cccc(C2(NC(=O)c3cncc4c3cnn4-c3ccc(F)cc3)CC2)c1 [[3-(1-{[1-(4-Fluoro-phenyl)-1H-pyrazolo[3,4-c]pyridine-4-carbonyl]-amino}-cyclopropyl)-benzoylamino]-acetic acid methyl ester]"

# The next lines start with the compound.
row,Structure (SMILES),IC50
1,"O=C(NC1(c2ncc(Br)cn2)CC1)c1cncc2c1cnn2-c1ccc(F)cc1 [1-(4-Fluoro-phenyl)-1H-pyrazolo[3,4-c]pyridine-4-carboxylic acid [1-(5-bromo-pyrimidin-2-yl)-cyclopropyl]-amide]",45 nM
2,"O=C(NC1(c2noc(C3CC3)n2)CC1)c1cncc2c1cnn2-c1ccc(F)cc1 [1-(4-Fluoro-phenyl)-1H-pyrazolo[3,4-c]pyridine-4-carboxylic acid [1-(5-cyclopropyl-1,2,4-oxadiazol-3-yl)-cyclopropyl]-amide]",61 nM
3,"CS(=O)(=O)c1ccc(C2(NC(=O)c3cncc4c3cnn4-c3ccc(F)cc3)CC2)o1 [1-(4-Fluoro-phenyl)-1H-pyrazolo[3,4-c]pyridine-4-carboxylic acid [1-(5-methanesulfonyl-furan-2-yl)-cyclopropyl]-amide]",4 nM
4,"CS(=O)(=O)c1cnc(C2(NC(=O)c3cncc4c3cnn4-c3ccc(F)cc3)CC2)nc1 [1-(4-Fluoro-phenyl)-1H-pyrazolo[3,4-c]pyridine-4-carboxylic acid [1-(5-methanesulfonyl-pyrimidin-2-yl)-cyclopropyl]-amide]",14 nM
5,"O=C(NC1(c2ccc(Br)nc2)CC1)c1cncc2c1cnn2-c1ccc(F)cc1 [1-(4-Fluoro-phenyl)-1H-pyrazolo[3,4-c]pyridine-4-carboxylic acid [1-(6-bromo-pyridin-3-yl)-cyclopropyl]-amide]",19 nM
6,"CN(C)c1cccc(C2(NC(=O)c3cncc4c3cnn4-c3ccc(F)cc3)CC2)n1 [1-(4-Fluoro-phenyl)-1H-pyrazolo[3,4-c]pyridine-4-carboxylic acid [1-(6-dimethylamino-pyridin-2-yl)-cyclopropyl]-amide]",3 nM
7,"CS(=O)(=O)c1ccc(C2(NC(=O)c3cncc4c3cnn4-c3ccc(F)cc3)CC2)cn1 [1-(4-Fluoro-phenyl)-1H-pyrazolo[3,4-c]pyridine-4-carboxylic acid [1-(6-methanesulfonyl-pyridin-3-yl)-cyclopropyl]-amide]",7 nM
8,"CNc1ccc(C2(NC(=O)c3cncc4c3cnn4-c3ccc(F)cc3)CC2)cn1 [1-(4-Fluoro-phenyl)-1H-pyrazolo[3,4-c]pyridine-4-carboxylic acid [1-(6-methylamino-pyridin-3-yl)-cyclopropyl]-amide]",28 nM
9,"O=C(NC1(c2ccc(N3CCOCC3)nc2)CC1)c1cncc2c1cnn2-c1ccc(F)cc1 [1-(4-Fluoro-phenyl)-1H-pyrazolo[3,4-c]pyridine-4-carboxylic acid [1-(6-morpholin-4-yl-pyridin-3-yl)-cyclopropyl]-amide]",6 nM
10,"NS(=O)(=O)c1ccc(C2(NC(=O)c3cncc4c3cnn4-c3ccc(F)cc3)CC2)cn1 [1-(4-Fluoro-phenyl)-1H-pyrazolo[3,4-c]pyridine-4-carboxylic acid [1-(6-sulfamoyl-pyridin-3-yl)-cyclopropyl]-amide]",5 nM
11,"CC(=O)N(C)c1ccc(C2(NC(=O)c3cncc4c3cnn4-c3ccc(F)cc3)CC2)cn1 [1-(4-Fluoro-phenyl)-1H-pyrazolo[3,4-c]pyridine-4-carboxylic acid {1-[6-(acetyl-methyl-amino)-pyridin-3-yl]-cyclopropyl}-amide]",20 nM
12,CS(=O)(=O)c1cc(C2(NC(=O)c3cc(I)cc4c3cnn4-c3ccc(F)cc3)CC2)ccn1 [1-(4-Fluoro-phenyl)-6-iodo-1H-indazole-4-carboxylic acid [1-(2-methanesulfonyl-pyridin-4-yl)-cyclopropyl]-amide],13 nM
13,CS(=O)(=O)c1cc(C(=O)NC2(c3ccnc(S(C)(=O)=O)c3)CC2)c2cnn(-c3ccc(F)cc3)c2c1 [1-(4-Fluoro-phenyl)-6-methanesulfonyl-1H-indazole-4-carboxylic acid [1-(2-methanesulfonyl-pyridin-4-yl)-cyclopropyl]-amide],7 nM
14,"COC(=O)CCS(=O)(=O)c1ccc(C2(NC(=O)c3cncc4c3cnn4-c3ccc(F)cc3)CC2)cn1 [3-[5-(1-{[1-(4-Fluoro-phenyl)-1H-pyrazolo[3,4-c]pyridine-4-carbonyl]-amino}-cyclopropyl)-pyridine-2-sulfonyl]-propionic acid methyl ester]",10 nM
15,CS(=O)(=O)c1cc(C2(NC(=O)c3cc(Br)cc4c3cnn4-c3ccc(F)cc3)CC2)ccn1 [6-Bromo-1-(4-fluoro-phenyl)-1H-indazole-4-carboxylic acid [1-(2-methanesulfonyl-pyridin-4-yl)-cyclopropyl]-amide],2 nM
16,CS(=O)(=O)c1cc(C2(NC(=O)c3cc(C#N)cc4c3cnn4-c3ccc(F)cc3)CC2)ccn1 [6-Cyano-1-(4-fluoro-phenyl)-1H-indazole-4-carboxylic acid [1-(2-methanesulfonyl-pyridin-4-yl)-cyclopropyl]-amide],0.1 nM
17,"CC(C)(C)OC(=O)NCc1ccnc(C2(NC(=O)c3cncc4c3cnn4-c3ccc(F)cc3)CC2)c1 [[2-(1-{[1-(4-Fluoro-phenyl)-1H-pyrazolo[3,4-c]pyridine-4-carbonyl]-amino}-cyclopropyl)-pyridin-4-ylmethyl]-carbamic acid tert-butyl ester]",285 nM
18,"CC(C)(C)OC(=O)NCc1ccc(C2(NC(=O)c3cncc4c3cnn4-c3ccc(F)cc3)CC2)nc1 [[6-(1-{[1-(4-Fluoro-phenyl)-1H-pyrazolo[3,4-c]pyridine-4-carbonyl]-amino}-cyclopropyl)-pyridin-3-ylmethyl]-carbamic acid tert-butyl ester]",81 nM
